Experimental data as given in US7612035B2, “Inhibition of mitogen-activated protein kinase (MAPK) pathway: a selective therapeutic strategy against melanoma” (Van Andel Research Institute, priority 2000, dated 2009).
“Also recorded” adds a separate entry of the source. Read-outs that look alike come from different tables or passages of the source. Marks after values point to notes of the source that are not given here.

Key:
[1] = test system: UACC-257; conditions: mouse, in vivo, ip, 90 mg/kg/day; cited from earlier work
[2] = test system: MALME-3M; conditions: mouse, in vivo, ip, 90 mg/kg/day; cited from earlier work
[3] = test system: melanoma xenografts; conditions: mouse, in vivo, ip; cited from earlier work
[4] = test system: SK-MEL-5; conditions: mouse, in vivo, ip, 40 mg/kg/day; cited from earlier work
[5] = test system: UACC-62; conditions: mouse, in vivo, ip, 90 mg/kg/day; cited from earlier work
[6] = test system: M14; conditions: mouse, in vivo, ip, 90 mg/kg/day; cited from earlier work
[7] = test system: LOX-IMVI; conditions: mouse, in vivo, ip, cited from earlier work
[8] = test system: SK-MEL-2; conditions: mouse, in vivo, ip, 90 mg/kg/day; cited from earlier work
[9] = test system: LOX-IMVI; type: cell-based, human; conditions: 72 h, average of four replicates minus background (PA alone or DMSO), LF 0.1 μg/ml with PA, PD98059 20 μM every 24 h, U0126 10 μM single dose
[10] = test system: MDA-MB-435 and MDA-N; experiment: NCI-ADS growth inhibition, breast carcinoma lines; type: cell-based, human; conditions: NCI-ADS breast carcinoma lines MDA-MB-435 and MDA-N
[11] = test system: SK-MEL-5; type: cell-based, human; conditions: 72 h, average of four replicates minus background (PA alone or DMSO), LF 0.1 μg/ml with PA, PD98059 20 μM every 24 h, U0126 10 μM single dose
[12] = test system: UACC-257; type: cell-based, human; conditions: 72 h, average of four replicates minus background (PA alone or DMSO), LF 0.1 μg/ml with PA, PD98059 20 μM every 24 h, U0126 10 μM single dose
[13] = test system: normal human melanocytes (NHEM); type: cell-based; conditions: for % Apoptosis: Normal Melanocytes, treatment for 72 hours; for apoptosis (in words): normal melanocytes
[14] = test system: SK-MEL-28; type: cell-based, human; conditions: 72 h, average of four replicates minus background (PA alone or DMSO), LF 0.1 μg/ml with PA, PD98059 20 μM every 24 h, U0126 10 μM single dose
[15] = test system: ERK1 and 2; experiment: Active phospho-MAPK immunoblot in MALME-3M cells; type: cell-based, human
Method: (§1) Western blot analysis was performed as described previously (Koo et al., 1999, supra). The primary antibodies used were anti-active MAPK from Promega, and anti-ERK1 (K-23) and anti-ERK2 (C-14) from Santa Cruz Biotechnology.

[16] = test system: normal human melanocytes (NHEM); experiment: Cell cycle profile by flow cytometry; type: cell-based; conditions: 72 hours with PD98059 (and U0126) or 96 hours with LF
Method: (§2) Cell cycle profiles and DNA content were analyzed by flow cytometry, as previously described (Koo, H.-M. et al. Canc Res 59:6057-6062 (1999)). Total cells including floating cells were harvested, washed in cold PBS and fixed in cold 70% ethanol overnight. The fixed cells were rehydrated in PBS containing 1% fetal bovine serum, washed in PBS, incubated with DNase-free RNase at room temperature for 30 min, and then stained with 50 μg/ml propidium iodide overnight at 4° C. in the dark. The stained samples were analyzed in a FACSCalibur (Becton Dickinson Biosciences) for DNA content and cell cycle profiles.

[17] = test system: MALME-3M; experiment: Cell cycle profile by flow cytometry; type: cell-based, human; conditions: within 24 hours of treatment
Method: as §2
In most cell types, activation of the MAPK pathway is required for progression through the restriction point in G1 phase of the cell cycle (reviewed in Roussel et al., supra).

[18] = test system: SK-MEL-2; type: cell-based, human; conditions: 72 h, average of four replicates minus background (PA alone or DMSO), LF 0.1 μg/ml with PA, PD98059 20 μM every 24 h, U0126 10 μM single dose
[19] = test system: M14-MEL; type: cell-based, human; conditions: for % Apoptosis: M14-MEL Melanoma Cells, treatment for 72 hours; for Apoptosis (%) Experiment I: M14-MEL, 72 h, average of four replicates minus background (PA alone or DMSO), LF 0.1 μg/ml with PA, PD98059 20 μM every 24 h, U0126 10 μM single dose
[20] = test system: MAPK (ERK); experiment: Active phospho-MAPK immunoblot in normal melanocytes; type: cell-based, human; conditions: 72 hours with PD98059 (and U0126) or 96 hours with LF
Method: as §1

[21] = test system: UACC-62; type: cell-based, human; conditions: 72 h, average of four replicates minus background (PA alone or DMSO), LF 0.1 μg/ml with PA, PD98059 20 μM every 24 h, U0126 10 μM single dose
[22] = test system: MALME-3M; type: cell-based, human; conditions: 72 h, average of four replicates minus background (PA alone or DMSO), LF 0.1 μg/ml with PA, PD98059 20 μM every 24 h, U0126 10 μM single dose
[23] = test system: MAPK (ERK1/2); experiment: Western blot with phospho-specific anti-ERK antibody in M14-MEL cells; type: cell-based, human; conditions: M14-MEL melanoma cells
Method: as §1

[24] = 72 hours with PD98059 (and U0126) or 96 hours with LF

Compound: COc1cccc2c1[C@H](CO)N1[C@@H](C#N)[C@@H]3C[C@@H](C(=O)O)[C@H]([C@@H]1C2)N3C [DX-52-1]
- Growth delay: %(T − C)/C [1]: 35%
- Optimal % T/C [1]: 12 (27) %
- Regressions Complete [1]: 0/6
- Regressions Partial [1]: 0/6
- day on which the optimal (minimum) T/C was attained [1]: 12 (27)
- Growth delay: %(T − C)/C [2]: 4%
- Optimal % T/C [2]: 64 (72) %
- Regressions Complete [2]: 0/6
- Regressions Partial [2]: 0/6
- day on which the optimal (minimum) T/C was attained [2]: 64 (72)
- melanoma xenografts with statistically significant antitumor activity [3]: 5/7
- Growth delay: %(T − C)/C [4]: 27%
- Optimal % T/C [4]: 49 (33) %
- Regressions Complete [4]: 0/6
- Regressions Partial [4]: 0/6
- day on which the optimal (minimum) T/C was attained [4]: 49 (33)
- Growth delay: %(T − C)/C [5]: 185%
- Optimal % T/C [5]: 18 (34) %
- Regressions Complete [5]: 0/7
- Regressions Partial [5]: 0/7
- day on which the optimal (minimum) T/C was attained [5]: 18 (34)
- Growth delay: %(T − C)/C [6]: 56%
- Optimal % T/C [6]: 19 (26) %
- Regressions Complete [6]: 0/6
- Regressions Partial [6]: 0/6
- day on which the optimal (minimum) T/C was attained [6]: 19 (26)
- Growth delay: %(T − C)/C ([7]; 60 mg/kg/day): 389%
- Optimal % T/C ([7]; 60 mg/kg/day): −100^b %
- Regressions Complete ([7]; 60 mg/kg/day): 4/6
- Regressions Partial ([7]; 60 mg/kg/day): 016
- Growth delay: %(T − C)/C ([7]; 90 mg/kg/day): 181%
- Optimal % T/C ([7]; 90 mg/kg/day): −54%
- Regressions Complete ([7]; 90 mg/kg/day): 2/10
- Regressions Partial ([7]; 90 mg/kg/day): 3/10
- Growth delay: %(T − C)/C [8]: 118%
- Optimal % T/C [8]: 10 (32) %
- Regressions Complete [8]: 2/6
- Regressions Partial [8]: 0/6
- day on which the optimal (minimum) T/C was attained [8]: 10 (32)

Compound: COc1cccc(-c2cc(=O)c3ccccc3o2)c1N [PD98059]
- Apoptosis (%) Experiment I [9]: 3.6%
- sensitivity to growth inhibition [10]: as sensitive as melanoma cell lines
- Apoptosis (%) Experiment I [11]: 9.1%
- Apoptosis (%) Experiment I [12]: 19.7%
- % Apoptosis ([13]; 20 μM): 0%
- apoptosis (in words) [13, 24]: no apoptosis was observed
- apoptosis (in words) ([13]; PD98059 for 96 hours): apoptosis was not detected
- Apoptosis (%) Experiment I [14]: 2.5%
- activation of ERK1 and 2 [15]: inhibited
- cell cycle response [16]: induced G1 arrest
- cell cycle progression [17]: noticeably blocked in the G1 phase
- Apoptosis (%) Experiment I [18]: 23.4%
- % Apoptosis ([19]; 20 μM): 38.9%
- Apoptosis (%) Experiment I [19]: 53.0%
- MAPK (ERK) activation [20]: inhibited
- Apoptosis (%) Experiment I [21]: 30.5%
- Apoptosis (%) Experiment I [22]: 47.9%

Compound: O=C(NOCC1CC1)c1ccc(F)c(F)c1Nc1ccc(I)cc1Cl [PD184352]
- % Apoptosis ([13]; 2 μM): 0.3%
- % Apoptosis ([19]; 1 μM): 24.5%
- % Apoptosis ([19]; 5 μM): 37.3%
- % Apoptosis ([19]; 10 μM): 48.8%
- % Apoptosis ([19]; 20 μM): 71.0%
- potency relative to PD98059 ([19]; apoptosis in M14-MEL, 72 hours): more potent, possibly by several fold
- selectivity melanoma cells vs normal human melanocytes ([19]; apoptosis, 72 hours): selectively cytotoxic to human melanoma cells
- activation of MAPK (ERK1/2) [23]: completely blocked

Compound: N#CC(=C(/N)Sc1ccccc1N)/C(C#N)=C(\N)Sc1ccccc1N [U0126]
- Apoptosis (%) Experiment I [9]: 2.3%
- Apoptosis (%) Experiment I [11]: 1.9%
- Apoptosis (%) Experiment I [12]: 4.7%
- apoptosis (in words) [13, 24]: no apoptosis was observed; also recorded: did not induce apoptosis
- Apoptosis (%) Experiment I [14]: 1.1%
- cell cycle response [16]: induced G1 arrest
- Apoptosis (%) Experiment I [18]: 35.4%
- Apoptosis (%) Experiment I [19]: 36.0%
- MAPK (ERK) activation [20]: inhibited
- Apoptosis (%) Experiment I [21]: 8.3%
- Apoptosis (%) Experiment I [22]: 48.3%
